Test results as given in patent US3949075A, “Anti-microbial compounds of 2', 4' substituted anilides of substituted nitrosalicylic acid for quadruped animals” (Ferro Corporation, priority 1974, dated 1976).
Read-outs that look alike come from different tables or passages of the source.

Columns and labels:
Haemonchus contortus = test: Percent of Haemonchus destroyed or expelled in infected sheep (egg count after treatment); assay type: in vivo, Haemonchus contortus (in sheep); settings: for inhibition in vivo at 15 mg/kg / inhibition in vivo at 5 mg/kg / inhibition in vivo at 2 mg/kg: Haemonchus contortus; for Effectiveness at 15 mg/kg against Haemonchus: Table VI
Description: Two groups of sheep were used in the tests. One group was used as a non-medicated control, while the other group was treated with the compound under investigation. Helminth-free young lambs were infected with about 10,000 filariform larvae of Haemonchus contortus. In three weeks when the infection became apparent, egg counts were made to determine the density of the worm burden.
The egg count was carried out using the following modified Stoll method. Three grams of sheep feces were taken rectally from each animal and placed in a Stoll flask. To each flask, tap water was added to the top line. The fecal pellets were too hard to break down, the flasks were closed with rubber stoppers and kept in the refrigerator for several hours. The flasks were thoroughly shaken and a 1 ml. sample was drawn from the middle using a wide mouth pipette. This 1 ml. sample was transferred to an 8 ml. plastic tube, to which enough saturated sodium chloride solution was added to reach the rim. The tubes were then centrifuged for 10 minutes at 1500 r.p.m. Then sodium chloride solution was added with a medicine dropper forming a concave miniscus. A cover glass was carefully added and the tubes were kept in a refrigerator for ten to twenty minutes. During that period, the nematode ova flowed upward and adhered to the bottom of the cover glass slip. At the end of the 20-minute period, the cover slip was carefully detached from the miniscus and transferred to a microscopic slide. The ova were then counted under a microscope equipped with 10X ocular and 10X objective lens. Each ovum under the microscope represented 20 ova in the sample.
Animals with sufficiently high egg counts were taken out of the pool and housed in experimental pens. Since the salicylanilides of the present invention are water insoluble, the compounds were first ground using a mortar and pestle and then were placed in a carboxymethyl cellulose solution. The particles were further micronized ultrasonically. The compound was then administered to two or three animals by Oesophageal gavage. Control, untreated animals, received only the carboxymethyl cellulose solution in a similar manner. On the sixth and seventh day after treatment, fecal pellets were taken from the rectum of the control as well as the treated animals and egg counts were made.
(§1) The results of tests on sheep in a manner described, supra, using compounds of the present invention are given in Table 1, Examples 5 through 13. The numbers in the column headed "Haemonchus (15 mg/kg)" refer to the percent of parasites destroyed or expelled when the indicated compound was introduced into the rumen of sheep at a dosage of 15 milligrams per kilogram of body weight. The values under "Tolerance (mg/kg)" refer to the highest test dosage in the milligrams of anthelmintic per kilogram of body weight at which the sheep developed no toxic symptoms. "Tol." is an abbreviation for "tolerated". The symbols R1 and R2 refer to those of Formula I in these and other following examples.
(§2) The data of the tables were generated using procedures previously described. The compounds tested are disubstituted and, except for Example 50 which is dibromo, are dichloro. Where the position for the substituents is other than 2' and 4', it is indicated. Under the indicated microorganisms, the values given in this and the following tables, should be read as: percentage of microorganism killed/dose in milligrams per kilogram of body weight. Under "Tolerance", the term "Tol." means "tolerated", "Tox." means "toxic", and "Sym." means "symptoms of toxic reaction", all at the dosage value which follows. It will be appreciated that there is no sharp toxicity end point in determining toxicity to living sheep.

Fasciola hepatica = test: Test for activity against liver flukes, Fasciola hepatica, in infected sheep; assay type: in vivo
Description: Test for activity against liver flukes were conducted as follows:
Eggs of Fasciola hepatica were collected from the bile of donor sheep. The eggs were embryonated and snails were infected (the genus Lymnaea serves as intermediate host) to produce Metacercariae which are the infective forms for sheep. Each sheep was infected with 250 metacercariae intraruminally. When the infection became patent in ca. 80 days, egg counts were carried out to determine the degree of worm burden. The liver was processed to recover F. hepatica in the untreated and treated sheep.
as §2

sheep = test: Tolerance / toxicity in sheep; assay type: in vivo; parameters: key to Tolerance at 100 mg/kg / Tolerance at 50 mg/kg: "toxic" refers to death of sheep resulting from the use of the indicated compound at the indicated dosage; key to Tolerance: Tol.: tolerated; Tox.: toxic; Sym.: symptoms of toxic reaction; settings: for Tolerance at 50 mg/kg: Tables III and IV
Description: as §1
The importance of the 2',4' substitution on the anilide moiety of Formula I is illustrated by the case of the dichloro substitution as summarized in Table III. […] This has been mentioned briefly hereinabove. As used herein, "toxic" refers to death of sheep resulting from the use of the indicated compound at the indicated dosage.
as §2

[1] = test system: Haemonchus and Fasciola hepatica; test: Dual activity against Haemonchus and Fasciola in sheep and therapeutic ratio; assay type: in vivo; settings: sheep, 5 mg./kg.
[2] = iv, sheep, 15 mg/kg, Tables III and IV, read-out: Effectiveness (%) at 15 mg/kg
[3] = sheep, 5 mg/kg, Tables VIII-XI, read-out: Haemonchus, percentage of microorganism killed
[4] = sheep, 5 mg/kg, Tables III and IV
[5] = Fasciola hepatica, read-out: Fasciola hepatica, percentage of microorganism killed
[6] = Fasciola hepatica, sheep, Tables VIII-XI, read-out: Fasciola hepatica, percentage of microorganism killed
[7] = sheep, 15 mg/kg, Tables VIII-XI, read-out: Haemonchus, percentage of microorganism killed
[8] = Fasciola hepatica, sheep, 15 mg/kg, Tables VIII-XI, read-out: Fasciola hepatica, percentage of microorganism killed

## Cc1c([N+](=O)[O-])cc(C(C)(C)C)c(O)c1C(=O)Nc1cc(Cl)ccc1Cl [Example 24, reference compound]
Haemonchus contortus; [2]
  inhibition in vivo at 15 mg/kg: 100%
Haemonchus contortus; read-out: Haemonchus, percentage of microorganism killed, sheep, 15 mg/kg, Tables VIII-XI
  inhibition in vivo at 15 mg/kg: 100%
Haemonchus contortus; [3]
  inhibition in vivo at 5 mg/kg: 61%
Haemonchus contortus; sheep, 5 mg/kg
  activity at 5 mg./kg.: 61%
Haemonchus contortus; [4]
  Effectiveness (%) at 5 mg/kg: 61%
Fasciola hepatica; [5]
  inhibition in vivo at 15 mg/kg: 100%
Fasciola hepatica; [6]
  inhibition in vivo at 5 mg/kg: 0%
Fasciola hepatica; sheep
  activity against Fasciola, in words: no activity
sheep; 50 mg./kg., Tables VIII-X
  Tolerance: Tol.
sheep; 50 mg/kg
  toxic effects at 50 mg./kg.: shows toxic effects
  Tolerance at 50 mg/kg: toxic
[1]
  clinical effectiveness against either parasite, in words: would not be clinically effective against either parasite

## Cc1c([N+](=O)[O-])cc(C(C)(C)C)c(O)c1C(=O)Nc1ccc(Cl)c(Cl)c1 [Example 25]
Haemonchus contortus; [2]
  inhibition in vivo at 15 mg/kg: 100%
Haemonchus contortus; [3]
  inhibition in vivo at 5 mg/kg: 20%
Haemonchus contortus; [7]
  inhibition in vivo at 15 mg/kg: 100%
Haemonchus contortus; [4]
  Effectiveness (%) at 5 mg/kg: 20%
Fasciola hepatica; Fasciola hepatica, sheep, 2 mg/kg, Tables VIII-XI, read-out: Fasciola hepatica, percentage of microorganism killed
  inhibition in vivo at 2 mg/kg: 0%
Fasciola hepatica; [6]
  inhibition in vivo at 5 mg/kg: 95%
Fasciola hepatica; [8]
  inhibition in vivo at 15 mg/kg: 100%
sheep; 15 mg./kg., Tables VIII, X
  Tolerance: Tox.
sheep; 50 mg./kg., Tables VIII-X
  Tolerance: Tox.
sheep; 50 mg/kg
  Tolerance at 50 mg/kg: toxic

## Cc1c([N+](=O)[O-])cc(C(C)(C)C)c(O)c1C(=O)Nc1cc(Cl)cc(Cl)c1 [Example 26]
Haemonchus contortus; [2]
  inhibition in vivo at 15 mg/kg: 67%
Haemonchus contortus; [7]
  inhibition in vivo at 15 mg/kg: 67%
Haemonchus contortus; sheep
  effectiveness against the parasites, in words: too low to be useful
Fasciola hepatica; [5]
  inhibition in vivo at 15 mg/kg: 100%
sheep; 40 mg./kg., Table VIII
  Tolerance: Tol.

## Cc1ccc(Cl)cc1NC(=O)c1c(C)c([N+](=O)[O-])cc(C(C)(C)C)c1O [Example 29]
Haemonchus contortus; [2]
  inhibition in vivo at 15 mg/kg: 0%
Haemonchus contortus; [7]
  inhibition in vivo at 15 mg/kg: 0%
Haemonchus contortus; sheep
  effectiveness against the parasites, in words: ineffective

## Cc1cccc(Cl)c1NC(=O)c1c(C)c([N+](=O)[O-])cc(C(C)(C)C)c1O [Example 30]
Haemonchus contortus; [2]
  inhibition in vivo at 15 mg/kg: 0%
Haemonchus contortus; [7]
  inhibition in vivo at 15 mg/kg: 0%
Haemonchus contortus; sheep
  effectiveness against the parasites, in words: ineffective

## Cc1c([N+](=O)[O-])cc(C(C)(C)C)c(O)c1C(=O)Nc1cc(Cl)c(Cl)cc1Cl [Example 36]
sheep; 15 mg/kg, Table VI
  Toxicity (printed in the column Effectiveness at 15 mg/kg against Haemonchus): Toxic

## Cc1c([N+](=O)[O-])cc(C(C)(C)C)c(O)c1C(=O)Nc1c(Cl)cc(Cl)cc1Cl [Example 37]
Haemonchus contortus; sheep, 15 mg/kg
  Effectiveness at 15 mg/kg against Haemonchus: 73%

## Cc1cc(NC(=O)c2c(C)c([N+](=O)[O-])cc(C(C)(C)C)c2O)c(C)cc1Cl [Example 39]
Haemonchus contortus; sheep, 15 mg/kg
  Effectiveness at 15 mg/kg against Haemonchus: 0%

## Cc1c([N+](=O)[O-])cc(C(C)(C)C)c(O)c1C(=O)Nc1ccc(Br)cc1Br [Example 50]
Haemonchus contortus; [3]
  inhibition in vivo at 5 mg/kg: 99.8%
Fasciola hepatica; [6]
  inhibition in vivo at 5 mg/kg: 100%

## Cc1c([N+](=O)[O-])cc(C(C)(C)C)c(O)c1C(=O)Nc1cccc(Cl)c1Cl [Example 60]
Haemonchus contortus; [7]
  inhibition in vivo at 15 mg/kg: 14%

## Cc1cc(Br)ccc1NC(=O)c1c(C)c([N+](=O)[O-])cc(C(C)(C)C)c1O [Example 64]
Haemonchus contortus; read-out: Haemonchus, percentage of microorganism killed, sheep, 2 mg/kg, Tables VIII-XI
  inhibition in vivo at 2 mg/kg: 38%
Haemonchus contortus; [3]
  inhibition in vivo at 5 mg/kg: 100%
Fasciola hepatica; [6]
  inhibition in vivo at 5 mg/kg: 100%
sheep; 50 mg./kg., Tables VIII-X
  Tolerance: Tox.
sheep; 50 mg./kg., Tables VIII-X, listed as 65
  Tolerance: Sym.

## Cc1cc(I)ccc1NC(=O)c1c(C)c([N+](=O)[O-])cc(C(C)(C)C)c1O [Example 66]
Haemonchus contortus; sheep, 2 mg/kg, Tables VIII-XI, read-out: Haemonchus, percentage of microorganism killed
  inhibition in vivo at 2 mg/kg: 13%
Haemonchus contortus; [3]
  inhibition in vivo at 5 mg/kg: 88%
Fasciola hepatica; [6]
  inhibition in vivo at 5 mg/kg: 100%
Fasciola hepatica; [8]
  inhibition in vivo at 15 mg/kg: 100%
sheep; 50 mg./kg., Tables VIII-X
  Tolerance: Sym.

## Cc1ccc(NC(=O)c2c(C)c([N+](=O)[O-])cc(C(C)(C)C)c2O)c(Cl)c1 [Example 71]
Haemonchus contortus; [7]
  inhibition in vivo at 15 mg/kg: 62%

## Cc1ccc(NC(=O)c2c(C)c([N+](=O)[O-])cc(C(C)(C)C)c2O)cc1Cl [Example 72]
Haemonchus contortus; [3]
  inhibition in vivo at 5 mg/kg: 0%
Haemonchus contortus; [7]
  inhibition in vivo at 15 mg/kg: 80%
